Article PMC4264174, “The Discovery of Aurora Kinase Inhibitor by Multi-Docking-Based Virtual Screening” (International Journal of Molecular Sciences, 2014)

What was measured:
[1] = target: T1, Aurora-A (h) (Homo sapiens, UniProt O14965); test: Kinase Profiler in vitro assay (Merck Millipore), aurora-A; type: biochemical; settings: for IC50: at aurora A (h); for inhibition at 100 µM: Aurora-A, at 100 μM concentration, with standard deviation
T1 construct: purchased Merck Millipore, Inc. (Abingdon, UK), Kinase Profiler service
T1 sequence (O14965 1-403): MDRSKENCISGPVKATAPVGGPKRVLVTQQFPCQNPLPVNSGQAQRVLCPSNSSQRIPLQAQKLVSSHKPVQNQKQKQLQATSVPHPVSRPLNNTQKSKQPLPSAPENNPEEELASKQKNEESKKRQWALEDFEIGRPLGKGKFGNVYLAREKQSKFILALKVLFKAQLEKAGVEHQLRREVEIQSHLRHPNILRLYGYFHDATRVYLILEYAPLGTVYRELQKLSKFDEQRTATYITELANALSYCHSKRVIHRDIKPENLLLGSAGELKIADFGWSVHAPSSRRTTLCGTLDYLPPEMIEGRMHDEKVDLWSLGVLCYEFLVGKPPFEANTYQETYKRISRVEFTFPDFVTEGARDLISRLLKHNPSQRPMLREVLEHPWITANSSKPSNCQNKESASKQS
Protocol: The fragments obtained from the above-mentioned docking study were purchased from commercial websites and evaluated using the Kinase Profiler in vitro assay technique developed by Merck Millipore, Inc., (Abingdon, UK). The aurora-A kinase was maintained with 8 mM […] at pH 7.0, 0.2 mM EDTA, 200 μM LRRASLG (Kemptide, American peptide Company, Sunnyvale, CA, USA), 10 mM MgAcetate, and [γ-33P-ATP]. The kinase reaction began with the addition of the MgATP mixture. The buffer-MgATP mixture was incubated for 40 min at room temperature. After incubation, the reaction was stopped through the addition of a 3% phosphoric acid solution. Then, a 10 μL reaction was spotted onto a P30 filtermat. The spotted P30 filtermat was washed three times for 5 min in 50 mM phosphoric acid and once in methanol prior to the drying and scintillation counting step.

[2] = target: T2, Aurora-B (h) (Homo sapiens, UniProt Q96GD4); test: Kinase Profiler in vitro assay, aurora-B; type: biochemical
T2 construct: purchased Merck Millipore, Inc. (Abingdon, UK), Kinase Profiler service
T2 sequence (Q96GD4 whole entry): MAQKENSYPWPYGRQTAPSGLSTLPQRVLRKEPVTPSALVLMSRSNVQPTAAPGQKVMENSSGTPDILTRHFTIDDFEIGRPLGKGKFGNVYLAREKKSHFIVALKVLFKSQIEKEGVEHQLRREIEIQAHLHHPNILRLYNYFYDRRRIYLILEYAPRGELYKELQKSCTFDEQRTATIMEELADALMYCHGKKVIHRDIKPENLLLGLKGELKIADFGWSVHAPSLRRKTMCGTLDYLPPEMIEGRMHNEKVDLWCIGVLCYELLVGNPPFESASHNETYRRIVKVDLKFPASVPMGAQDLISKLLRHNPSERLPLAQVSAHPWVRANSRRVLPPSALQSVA

[3] = target: T3, Aurora-C (h) (Homo sapiens, UniProt Q9UQB9); test: Kinase Profiler in vitro assay, aurora-C; type: biochemical
T3 construct: purchased Merck Millipore, Inc. (Abingdon, UK), Kinase Profiler service
T3 sequence (Q9UQB9 1-309): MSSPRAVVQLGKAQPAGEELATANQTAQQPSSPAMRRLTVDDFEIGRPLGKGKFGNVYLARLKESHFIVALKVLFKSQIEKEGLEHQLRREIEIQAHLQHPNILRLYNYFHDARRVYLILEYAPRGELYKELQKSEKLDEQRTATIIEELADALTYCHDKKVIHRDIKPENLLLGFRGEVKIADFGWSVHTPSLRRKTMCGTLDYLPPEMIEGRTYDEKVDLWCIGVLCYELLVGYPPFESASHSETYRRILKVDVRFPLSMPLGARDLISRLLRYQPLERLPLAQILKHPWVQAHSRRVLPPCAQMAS

[4] = system: aurora-A; settings: cited from earlier work

## O=C1C(Nc2cccc(Cl)c2)=C(Cl)C(=O)c2[nH]c(C(F)(F)F)nc21 [Compound 17]
[1]
  inhibition at 10 µM: 65%
  IC50: 7.47 µM
[2]
  inhibition at 10 µM: 76 ± 1%
[3]
  inhibition at 10 µM: 17 ± 4%

## COC(=O)CSc1nnc(-c2n[nH]c3c2CCC3)n1N [Fragment 4]
[1]
  inhibition at 100 µM: 28 ± 1%

## CN[C@@H]1C[C@H]2O[C@@](C)([C@@H]1OC)n1c3ccccc3c3c4c(c5c6ccccc6n2c5c31)C(=O)NC4 [Staurosporine, reference compound]
[1]
  inhibition at 10 µM: 100%

## COc1cnc(NCc2ncn[nH]2)nc1-c1ccnn1C [Fragment 11]
[1]
  inhibition at 100 µM: 25 ± 2%

## O=C1C(Nc2ccc(Cl)cc2)=C(Cl)C(=O)c2[nH]c(C(F)(F)F)nc21 [Compound 16]
[1]
  inhibition at 10 µM: 52%
  IC50: 9.17 µM
[2]
  inhibition at 10 µM: 84 ± 1%
[3]
  inhibition at 10 µM: 8 ± 8%

## O=c1cc(-c2ccccc2)[nH]c2nc(SCc3ccccc3)nn12 [Fragment 2]
[1]
  inhibition at 100 µM: 13 ± 12%

## Cc1nnsc1C(=O)Nc1onc2c1CSC2 [Fragment 13]
[1]
  inhibition at 100 µM: > 50%

## Cc1nonc1-c1ccnc2nnc(N)n12 [Fragment 9]
[1]
  inhibition at 100 µM: 8 ± 10%

## O=C1C=CC(=O)c2[nH]c(C(F)(F)F)nc21 [Fragment 12]
[1]
  inhibition at 100 µM: 93 ± 2%

## Cc1cc(C)cc(Nc2ncc3c(n2)C[C@@H](c2cccs2)CC3=O)c1 [Fragment 3]
[1]
  inhibition at 100 µM: > 50%

## COC(=O)c1nc2[nH]c(=O)cc(C)n2n1 [Fragment 8]
[1]
  inhibition at 100 µM: 24 ± 4%

## C/C=C/C(=O)Nn1cnc2c(cnn2-c2ccccc2)c1=O [Fragment 15]
[1]
  inhibition at 100 µM: 2 ± 15%

## O=C(Nc1onc2c1CCCC2)c1nc(-c2cnccn2)no1 [Fragment 14]
[1]
  inhibition at 100 µM: 39 ± 3%

## COC(=O)/C=C1\S/C(=N\NC(=O)c2snnc2C)NC1=O [Fragment 7]
[1]
  inhibition at 100 µM: 35 ± 3%

## Cc1nn2c(nc3ccccc32)[nH]c1=O [Fragment 5]
[1]
  inhibition at 100 µM: 31 ± 6%
